# Laboratory results as given in PubChem BioAssay (NCI).
#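 At the GI50, growth is halved. TGI: concentration producing complete growth inhibition.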
# What was measured:
# Experiment in all cases: inhibition of tumour cell growth, NCI panel, 384-well format
# SK-OV-3 ovarian = test system: SK-OV-3 ovarian
# UACC-62 melanoma = test system: UACC-62 melanoma
# DU-145 prostate = test system: DU-145 prostate
# SNB-19 CNS = test system: SNB-19 CNS
# BT-549 breast = test system: BT-549 breast
# NCI-H226 lung = test system: NCI-H226 lung
# MDA-MB-435 melanoma = test system: MDA-MB-435 melanoma
# T-47D breast = test system: T-47D breast
# HOP-62 NSCLC = test system: HOP-62 NSCLC
# UO-31 renal = test system: UO-31 renal
# SN12C renal = test system: SN12C renal
# PC-3 prostate = test system: PC-3 prostate
# HCC-2998 colon = test system: HCC-2998 colon
# RPMI-8226 leukemia = test system: RPMI-8226 leukemia
# HT29 colon = test system: HT29 colon
# 786-0 renal = test system: 786-0 renal
# RXF 393 renal = test system: RXF 393 renal
# LOX IMVI melanoma = test system: LOX IMVI melanoma
# NCI-H23 lung = test system: NCI-H23 lung
# SF-539 CNS = test system: SF-539 CNS
# SK-MEL-5 melanoma = test system: SK-MEL-5 melanoma
# A549 NSCLC = test system: A549 NSCLC
# UACC-257 melanoma = test system: UACC-257 melanoma
# OVCAR-5 ovarian = test system: OVCAR-5 ovarian
# M14 melanoma = test system: M14 melanoma
# OVCAR-3 ovarian = test system: OVCAR-3 ovarian
# SK-MEL-28 melanoma = test system: SK-MEL-28 melanoma
# MOLT-4 leukemia = test system: MOLT-4 leukemia
# HCT-116 colon = test system: HCT-116 colon
# ACHN renal = test system: ACHN renal
# OVCAR-4 ovarian = test system: OVCAR-4 ovarian
# NCI-H322M lung = test system: NCI-H322M lung
# MALME-3M melanoma = test system: MALME-3M melanoma
# CCRF-CEM leukemia = test system: CCRF-CEM leukemia
# TK-10 renal = test system: TK-10 renal
# MDA-MB-468 breast = test system: MDA-MB-468 breast
# COLO 205 colon = test system: COLO 205 colon
# SR leukemia = test system: SR leukemia
# NCI/ADR-RES ovarian = test system: NCI/ADR-RES ovarian
# HL-60(TB) leukemia = test system: HL-60(TB) leukemia
# SF-268 CNS = test system: SF-268 CNS
# SK-MEL-2 melanoma = test system: SK-MEL-2 melanoma
# SW-620 colon = test system: SW-620 colon
# MDA-MB-231 breast = test system: MDA-MB-231 breast
# NCI-H460 NSCLC = test system: NCI-H460 NSCLC
# OVCAR-8 ovarian = test system: OVCAR-8 ovarian
# MCF7 breast = test system: MCF7 breast
# KM12 colon = test system: KM12 colon
# HOP-92 NSCLC = test system: HOP-92 NSCLC
# HCT-15 colon = test system: HCT-15 colon
# NCI-H522 lung = test system: NCI-H522 lung
# A498 renal = test system: A498 renal
# SF-295 CNS = test system: SF-295 CNS
# CAKI-1 renal = test system: CAKI-1 renal
# IGROV1 ovarian = test system: IGROV1 ovarian
# K-562 leukemia = test system: K-562 leukemia
# U251 glioblastoma = test system: U251 glioblastoma
compound,measurement,setting,value
Cc1cc2c(C(=O)NC[C@H](C)c3ccccc3)c(O)c(O)cc2c(O)c1-c1c(C)cc2c(C(=O)NC[C@H](C)c3ccccc3)c(O)c(O)cc2c1O,GI50,SK-OV-3 ovarian,1500 nM
same,TGI,SK-OV-3 ovarian,3900 nM
same,GI50,UACC-62 melanoma,486 nM
same,TGI,UACC-62 melanoma,1630 nM
same,GI50,DU-145 prostate,382 nM
same,TGI,DU-145 prostate,1980 nM
same,GI50,SNB-19 CNS,413 nM
same,TGI,SNB-19 CNS,1440 nM
same,GI50,BT-549 breast,243 nM
same,TGI,BT-549 breast,582 nM
same,GI50,NCI-H226 lung,1130 nM
same,TGI,NCI-H226 lung,2600 nM
same,GI50,MDA-MB-435 melanoma,540 nM
same,TGI,MDA-MB-435 melanoma,2700 nM
same,GI50,T-47D breast,382 nM
same,TGI,T-47D breast,1590 nM
same,GI50,HOP-62 NSCLC,666 nM
same,TGI,HOP-62 NSCLC,2090 nM
same,GI50,UO-31 renal,1220 nM
same,TGI,UO-31 renal,2940 nM
same,GI50,SN12C renal,837 nM
same,TGI,SN12C renal,2300 nM
same,GI50,PC-3 prostate,1370 nM
same,TGI,PC-3 prostate,2750 nM
same,GI50,HCC-2998 colon,1380 nM
same,TGI,HCC-2998 colon,3200 nM
same,GI50,RPMI-8226 leukemia,238 nM
same,TGI,RPMI-8226 leukemia,447 nM
same,GI50,HT29 colon,1230 nM
same,TGI,HT29 colon,3830 nM
same,GI50,786-0 renal,1170 nM
same,TGI,786-0 renal,2800 nM
same,GI50,RXF 393 renal,201 nM
same,TGI,RXF 393 renal,625 nM
same,GI50,LOX IMVI melanoma,1740 nM
same,TGI,LOX IMVI melanoma,3270 nM
same,GI50,NCI-H23 lung,229 nM
same,TGI,NCI-H23 lung,448 nM
same,GI50,SF-539 CNS,233 nM
same,TGI,SF-539 CNS,579 nM
same,GI50,SK-MEL-5 melanoma,378 nM
same,TGI,SK-MEL-5 melanoma,1580 nM
same,GI50,A549 NSCLC,348 nM
same,TGI,A549 NSCLC,1390 nM
same,GI50,UACC-257 melanoma,1610 nM
same,TGI,UACC-257 melanoma,3570 nM
same,GI50,OVCAR-5 ovarian,558 nM
same,TGI,OVCAR-5 ovarian,1980 nM
same,GI50,M14 melanoma,394 nM
same,TGI,M14 melanoma,1360 nM
same,GI50,OVCAR-3 ovarian,613 nM
same,TGI,OVCAR-3 ovarian,2080 nM
same,GI50,SK-MEL-28 melanoma,606 nM
same,TGI,SK-MEL-28 melanoma,2400 nM
same,GI50,MOLT-4 leukemia,218 nM
same,TGI,MOLT-4 leukemia,404 nM
same,GI50,HCT-116 colon,274 nM
same,TGI,HCT-116 colon,685 nM
same,GI50,ACHN renal,1840 nM
same,TGI,ACHN renal,4040 nM
same,GI50,OVCAR-4 ovarian,935 nM
same,TGI,OVCAR-4 ovarian,4460 nM
same,GI50,NCI-H322M lung,1760 nM
same,TGI,NCI-H322M lung,8770 nM
same,GI50,MALME-3M melanoma,1590 nM
same,TGI,MALME-3M melanoma,4430 nM
same,GI50,CCRF-CEM leukemia,243 nM
same,TGI,CCRF-CEM leukemia,514 nM
same,GI50,TK-10 renal,1280 nM
same,TGI,TK-10 renal,7080 nM
same,GI50,MDA-MB-468 breast,187 nM
same,TGI,MDA-MB-468 breast,374 nM
same,GI50,COLO 205 colon,1940 nM
same,TGI,COLO 205 colon,4290 nM
same,GI50,SR leukemia,196 nM
same,TGI,SR leukemia,369 nM
same,GI50,NCI/ADR-RES ovarian,2150 nM
same,TGI,NCI/ADR-RES ovarian,5330 nM
same,GI50,HL-60(TB) leukemia,487 nM
same,TGI,HL-60(TB) leukemia,1390 nM
same,GI50,SF-268 CNS,523 nM
same,TGI,SF-268 CNS,1810 nM
same,GI50,SK-MEL-2 melanoma,240 nM
same,TGI,SK-MEL-2 melanoma,1030 nM
same,GI50,SW-620 colon,1480 nM
same,TGI,SW-620 colon,3620 nM
same,GI50,MDA-MB-231 breast,654 nM
same,TGI,MDA-MB-231 breast,2390 nM
same,GI50,NCI-H460 NSCLC,204 nM
same,TGI,NCI-H460 NSCLC,424 nM
same,GI50,OVCAR-8 ovarian,1120 nM
same,TGI,OVCAR-8 ovarian,2490 nM
same,GI50,MCF7 breast,309 nM
same,TGI,MCF7 breast,1180 nM
same,GI50,KM12 colon,390 nM
same,TGI,KM12 colon,1360 nM
same,GI50,HOP-92 NSCLC,461 nM
same,TGI,HOP-92 NSCLC,1560 nM
same,GI50,HCT-15 colon,545 nM
same,TGI,HCT-15 colon,2880 nM
same,GI50,NCI-H522 lung,207 nM
same,TGI,NCI-H522 lung,396 nM
same,GI50,A498 renal,286 nM
same,TGI,A498 renal,818 nM
same,GI50,SF-295 CNS,345 nM
same,TGI,SF-295 CNS,1120 nM
same,GI50,CAKI-1 renal,657 nM
same,TGI,CAKI-1 renal,2500 nM
same,GI50,IGROV1 ovarian,495 nM
same,TGI,IGROV1 ovarian,2920 nM
same,GI50,K-562 leukemia,328 nM
same,TGI,K-562 leukemia,1210 nM
same,GI50,U251 glioblastoma,281 nM
same,TGI,U251 glioblastoma,723 nM
